Laboratory results: ChEMBL document CHEMBL1131970, “The design of (-)-(S)-2-nitrooxyethyl 1,4-dihydro-2,6-dimethyl-3-nitro-4-(2-trifluoromethylphenyl) pyridine-5-carboxylate: a cardioselective positive inotropic derivative of Bay K 8644” (Bioorg Med Chem Lett, 1999)

Columns and labels:
Assay type in all cases: functional
Cavia porcellus [1] = organism: Cavia porcellus; assay: In vitro release of nitric oxide by nitrite quantitation in the absence of N-acetyl-cysteamine by Griess reaction
Cavia porcellus [2] = organism: Cavia porcellus; assay: In vitro release of nitric oxide by nitrite quantitation in the presence of N-acetyl-cysteamine by Griess reaction
Cavia porcellus [3] = organism: Cavia porcellus; assay: In vitro for cardiac calcium channel (CC) agonist activity; Active; conditions: read-out: ED50 (the source's name)
Cavia porcellus [4] = organism: Cavia porcellus; assay: In vitro for smooth muscle calcium channel antagonist activity; conditions: Muscle tissue
Cavia porcellus [5] = organism: Cavia porcellus; assay: In vitro cardiac calcium channel (CC) agonist activity; conditions: read-out: ED50 (the source's name)

Structure (SMILES) | EC50 (Cavia porcellus [3]) [µM] | IC50 (Cavia porcellus [4]) [µM] | EC50 (Cavia porcellus [5]) [µM] | Release (Cavia porcellus [1]) [%] | Release (Cavia porcellus [2]) [%]
O=[N+]([O-])OCC(CO[N+](=O)[O-])O[N+](=O)[O-] [NITROGLYCERIN] | – | – | – | 0.18 | 5.3
CO/C(O)=C1\C(C)=NC(C)=C([N+](=O)[O-])[C@H]1c1ccccc1C(F)(F)F | 0.92 | 16 | – | – | –
CC1=NC(C)=C([N+](=O)[O-])C(c2ccccc2C(F)(F)F)/C1=C(\O)OCCO[N+](=O)[O-] (stereo not given) | – | – | – | 1.09 | 2.7

Now from value to compound, other results behind:

EC50 (Cavia porcellus [3]) [µM] | IC50 (Cavia porcellus [4]) [µM] | EC50 (Cavia porcellus [5]) [µM] | Structure (SMILES) | Release (Cavia porcellus [1]) [%] | Release (Cavia porcellus [2]) [%]
– | 0.079 | 16 | CC1=NC(C)=C([N+](=O)[O-])[C@H](c2ccccc2C(F)(F)F)/C1=C(\O)OCCO[N+](=O)[O-] | – | –
– | 16 | 0.92 | CC1=NC(C)=C([N+](=O)[O-])[C@@H](c2ccccc2C(F)(F)F)/C1=C(\O)OCCO[N+](=O)[O-] | – | –
